# Measurements: patent US20230136600A1, “Method and device for screening antigen epitope polypeptide” (priority 2020, published 2023)
# Columns and labels:
# Balb/c mice = experiment: Polypeptide chip-based vaccine immunogenicity scoring system; format: in vivo; design: key to A2: whether the 95 percentile of the last sampling is increased compared with the end point: Y = rise; N = no rise
# [1] = test system: novel coronavirus (live coronavirus), vero cells; experiment: In-vitro live virus neutralization experiment with serum of immunized mice (CPE method); format: in vivo, SARS-CoV-2; conditions: Embodiment I: single peptide 100 μg + MF59 at Day 0, 14, 28, Balb/c mice, serum Day 35
# [2] = Embodiment III, polypeptide-KLH
# [3] = Embodiment III, polypeptide-KLH, Mix1-10
# [4] = Embodiment III, polypeptide-KLH, total score = 5
# [5] = Embodiment III, polypeptide-KLH, value of the whole mix
# [6] = adjuvant AddaVax, 7 peptides co-immunized in mice
# [7] = adjuvant Adju-Phos, 7 peptides co-immunized in mice
# [8] = adjuvant Alhydrogel, 7 peptides co-immunized in mice
# [9] = adjuvant Imjet Alumn, 7 peptides co-immunized in mice
# [10] = adjuvant MA103A, 7 peptides co-immunized in mice
# [11] = adjuvant MA103B, 7 peptides co-immunized in mice
sequence,measurement,setting,value
KLDDKDPNFK (SARS-CoV-2) [SEQ ID NO:20],B1: D 0-D 14 95 percentile rise in the number of mice,Balb/c mice; [2],3
same,B2: D 0-D 21 95 percentile rise in the number of mice,Balb/c mice; [2],3
same,B3: D 14-D 21 95 percentile rise in the number of mice,Balb/c mice; [2],1
same,B4: D 21-D 28 95 percentile rise in the number of mice,Balb/c mice; [2],1
same,A1: difference between a highest median and a D 0 median (95 percentile),Balb/c mice; [3],0.08
same,A2: whether the 95 percentile of the last sampling is increased compared with the end point,Balb/c mice; [3],Y
same,Total single peptide,"Balb/c mice; Embodiment III, polypeptide-KLH, A*3 + B*2 + C*1",14.8
same,A: 95 percentile grouping number score,Balb/c mice; [4],3.5
same,B: Mouse performance score,Balb/c mice; [4],1.9
same,C1: #A timing-sequence response peptide fragment set,Balb/c mice; [5],511
same,C2: #B vaccine specificity peptide fragment set,Balb/c mice; [5],364
same,C3: Intersection of A and B,Balb/c mice; [5],1
same,C4: Percentage of the intersection in set B,Balb/c mice; [5],0.275
same,C: Timing-sequence response and specificity score,Balb/c mice; [5],0.5
same,1) 95 percentile grouping number A,Balb/c mice; [6],0
same,1) 95 percentile grouping number A1,Balb/c mice; [6],0
same,2) Mouse performance B,Balb/c mice; [6],1.5
same,2) Mouse performance B1,Balb/c mice; [6],1
same,2) Mouse performance B2,Balb/c mice; [6],0
same,2) Mouse performance B3,Balb/c mice; [6],3
same,3) Timing-sequence response and specificity C,Balb/c mice; [6],0
same,3) Timing-sequence response and specificity C1,Balb/c mice; [6],237
same,3) Timing-sequence response and specificity C2,Balb/c mice; [6],1244
same,3) Timing-sequence response and specificity C3,Balb/c mice; [6],0
same,3) Timing-sequence response and specificity C4,Balb/c mice; [6],0.000
same,Total single peptide,Balb/c mice; [6],3
same,1) 95 percentile grouping number A,Balb/c mice; [7],1.5
same,1) 95 percentile grouping number A1,Balb/c mice; [7],0.025
same,2) Mouse performance B,Balb/c mice; [7],1.4
same,2) Mouse performance B1,Balb/c mice; [7],2
same,2) Mouse performance B2,Balb/c mice; [7],2
same,2) Mouse performance B3,Balb/c mice; [7],1
same,3) Timing-sequence response and specificity C,Balb/c mice; [7],0
same,3) Timing-sequence response and specificity C1,Balb/c mice; [7],203
same,3) Timing-sequence response and specificity C2,Balb/c mice; [7],1244
same,3) Timing-sequence response and specificity C3,Balb/c mice; [7],0
same,3) Timing-sequence response and specificity C4,Balb/c mice; [7],0.000
same,Total single peptide,Balb/c mice; [7],7.3
same,1) 95 percentile grouping number A,Balb/c mice; [8],0
same,1) 95 percentile grouping number A1,Balb/c mice; [8],0
same,2) Mouse performance B,Balb/c mice; [8],1.6
same,2) Mouse performance B1,Balb/c mice; [8],2
same,2) Mouse performance B2,Balb/c mice; [8],1
same,2) Mouse performance B3,Balb/c mice; [8],2
same,3) Timing-sequence response and specificity C,Balb/c mice; [8],1
same,3) Timing-sequence response and specificity C1,Balb/c mice; [8],123
same,3) Timing-sequence response and specificity C2,Balb/c mice; [8],1244
same,3) Timing-sequence response and specificity C3,Balb/c mice; [8],2
same,3) Timing-sequence response and specificity C4,Balb/c mice; [8],0.161
same,Total single peptide,Balb/c mice; [8],3.7
same,1) 95 percentile grouping number A,Balb/c mice; [9],0
same,1) 95 percentile grouping number A1,Balb/c mice; [9],0
same,2) Mouse performance B,Balb/c mice; [9],1.7
same,2) Mouse performance B1,Balb/c mice; [9],1
same,2) Mouse performance B2,Balb/c mice; [9],1
same,2) Mouse performance B3,Balb/c mice; [9],3
same,3) Timing-sequence response and specificity C,Balb/c mice; [9],1
same,3) Timing-sequence response and specificity C1,Balb/c mice; [9],100
same,3) Timing-sequence response and specificity C2,Balb/c mice; [9],1244
same,3) Timing-sequence response and specificity C3,Balb/c mice; [9],3
same,3) Timing-sequence response and specificity C4,Balb/c mice; [9],0.241
same,Total single peptide,Balb/c mice; [9],3.9
same,1) 95 percentile grouping number A,Balb/c mice; [10],1.5
same,1) 95 percentile grouping number A1,Balb/c mice; [10],0.015
same,2) Mouse performance B,Balb/c mice; [10],2.4
same,2) Mouse performance B1,Balb/c mice; [10],2
same,2) Mouse performance B2,Balb/c mice; [10],3
same,2) Mouse performance B3,Balb/c mice; [10],3
same,3) Timing-sequence response and specificity C,Balb/c mice; [10],1
same,3) Timing-sequence response and specificity C1,Balb/c mice; [10],260
same,3) Timing-sequence response and specificity C2,Balb/c mice; [10],1244
same,3) Timing-sequence response and specificity C3,Balb/c mice; [10],3
same,3) Timing-sequence response and specificity C4,Balb/c mice; [10],0.241
same,Total single peptide,Balb/c mice; [10],9.8
same,1) 95 percentile grouping number A,Balb/c mice; [11],1
same,1) 95 percentile grouping number A1,Balb/c mice; [11],0.02
same,2) Mouse performance B,Balb/c mice; [11],2.1
same,2) Mouse performance B1,Balb/c mice; [11],3
same,2) Mouse performance B2,Balb/c mice; [11],2
same,2) Mouse performance B3,Balb/c mice; [11],2
same,3) Timing-sequence response and specificity C,Balb/c mice; [11],0
same,3) Timing-sequence response and specificity C1,Balb/c mice; [11],153
same,3) Timing-sequence response and specificity C2,Balb/c mice; [11],1244
same,3) Timing-sequence response and specificity C3,Balb/c mice; [11],0
same,3) Timing-sequence response and specificity C4,Balb/c mice; [11],0.000
same,Total single peptide,Balb/c mice; [11],7.2
same,Neutralizing antibody positive rate (%),[1],20%
